Entries after “also recorded” stand apart in the source; their conditions may differ.
Assays:
Format in all cases: cell-based
VIPR2 [1] = biological target: T1, VIPR2 (Homo sapiens, UniProt P41587); assay: BRET-based VIPR2 activation assay (CAMYEL cAMP sensor, CHO cells, VIP background); settings: for IC50: Table 3, read-out: IC50 (from BRET)
T1 construct: expressed in transfected cells
T1 sequence (P41587 24-438): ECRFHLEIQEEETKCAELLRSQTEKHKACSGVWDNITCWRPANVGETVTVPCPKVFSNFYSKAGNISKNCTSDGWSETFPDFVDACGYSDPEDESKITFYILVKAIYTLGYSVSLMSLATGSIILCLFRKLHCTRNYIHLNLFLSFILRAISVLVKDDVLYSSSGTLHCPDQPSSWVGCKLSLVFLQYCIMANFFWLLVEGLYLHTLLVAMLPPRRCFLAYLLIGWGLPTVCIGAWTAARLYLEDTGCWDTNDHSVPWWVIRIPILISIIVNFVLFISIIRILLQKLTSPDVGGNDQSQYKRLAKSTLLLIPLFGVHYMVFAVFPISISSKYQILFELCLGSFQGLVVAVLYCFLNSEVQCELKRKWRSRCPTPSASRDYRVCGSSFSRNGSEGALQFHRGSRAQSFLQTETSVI
Protocol: FIG. 5A-B. Results of BRET-based VIPR2 activation assays in cells expressing both the VIPR2 receptor and CAMYEL (see FIG. 1A for schematic). a) Inhibitory dose-response curves on treatment of CHO cells with increasing concentrations of a batch of antagonists against a background of VIP activation (VIP=5 nM).
In such a system, a detector cell is used which expresses both the VIPR2 receptor and “CAMYEL,” a YFP-Epac-RLuc8 BRET sensor construct. This construct includes Epac1, a guanine nucleotide exchange factor activated by direct binding of cAMP, fused with an enhanced YFP and Renilla luciferase 8 (Rluc8) allowing BRET upon cAMP-induced conformational changes (Jiang et al., 2007, J Biol Chem. 282:10576-10584). In response to elevated cAMP levels, there is a conformational change in Epac and therefore a change in the proximity of the fused chromophores, Rluc8 and YFP, resulting in measurable energy transfer. Coexpression of this BRET construct with VIPR2. optionally tagged at the N-terminus with a signal peptide and FLAG epitope (SF-VIPR2), for example in HEK293 cells, allows for detection of a VIPR2-specific response to cAMP. BRET readout may be calculated by quantifying the ratio of the light emitted by the acceptor, YFP (λ=525 nm), over the emission from the donor, RLuc8 (λ=485 nm). The proximity of the donor and acceptor, and therefore the BRET ratio, decreases in the presence of cAMP. In non-limiting specific embodiments, a stable cell line may be generated for this assay using the Flp-In T-Rex system in HEK293 cells. This system allows site-specific single copy integration of the gene of interest and control of expression levels using the Tet-repressor site making receptor expression tetracycline-inducible. For example, a CAMYEL and VIPR2 expressing line may be induced with 0.01 μg/ml tetracycline, then, 24 hours later cells may be collected and distributed into 96-well plates. After treatment with candidate inhibitor compound, for example at 5, 1 and 0.5 μM concentrations, cells may be incubated with the light emitting luciferin, coelenterazine H, for 5 min and incubated for 5 min with VIP at increasing concentrations, for example ranging from 100 pM to 10 μM. The fluorescence and luminescence may then be quantified, for example using a PHERAstar (BMG) plate reader. […] Alternatively, analogous experiments may be performed using human cells harvested from a patient having a VIPR2 copy number variation, for example (but not by way of limitation) pluripotent stem cells prepared from such a patient and then transfected with a CAMYEL construct.
(§1) A series of compounds were prepared using a synthetic method analogous to that set forth in Scheme 1, above, and then tested for their ability to inhibit VIP-induced cAMP elevation and β-arrestin recruitment, as described herein (Discoverx Corporation, Fremont, Calif., US). Compound activities were also tested in a BRET-based assay, as described herein. The results are shown below in Tables 1-4, above.
Numerous cellular assays were developed that were able to detect VIP responses absent of interference from non-specific vasopressin receptors using this CHO based system. VIPR2 is a Gs coupled receptor. Activation of VIPR2 by VIP leads to both an elevation in cAMP signaling and the recruitment of β-arrestin. A variety of combinations can be transiently transfect into these CHO cells for the assessment of cellular responses to VIP. For the BRET readout CHO cell lines expressing an YFP-Epac-RLuc8 (CAMYEL) BRET sensor were used to detect changes in cAMP. This construct includes Epac1, a guanine nucleotide exchange factor activated by direct binding of cAMP, fused to an enhanced YFP and RLuc8 allowing a change in BRET upon cAMP-induced conformational changes. The key for medium to high throughput screening assays is the use of stable cell lines allowing the continuous assaying of multiple compounds with the ability to generate large numbers of cells for rapid use. […]

VIPR2 [2] = biological target: T1, VIPR2; assay: Inhibition of VIP-induced cAMP elevation (% Activity)
Excerpt: In a further non-limiting embodiment of the invention, the ability of a compound to inhibit VIPR2 and […] may be measured using a Homogeneous Time-Resolved Fluorescence (“HTRF® assay; Cisbio Bioassays) as used in Chu et al., 2010, Molecular Pharmacol. 7795-101. In a method as used in Chu et al., 2010, Molecular Pharmacol. 7795-101, HEK293 cells may be transfected with nucleic acid encoding VIPR2, for example human VIPR2 (“hVIPR2”), for example comprised in a vector such as pCDNA3.1 vector. Successful transformnnants may then be selected, for example using 800 μg/ml G418. Clonal stable cell lines may then be generated by limited dilution to single cells and then may be clonally expanded and tested for VIP-dependent cAMP response. For the cAMP assay, about 3000-15,000 cells (in about 4-25 μl) may be placed in a well of an assay plate. The next day, inhibitor or test inhibitor and VIP may be added in a volume about 1-2 percent of the initial volume. Assay plates may then be returned to a cell incubator for 30 min before addition of a one-half volume of cAMP conjugate and, relative to the amount of cAMP conjugate, an equal volume of anti-cAMP conjugate (Cisbio). After at least 1 h of room-temperature incubation, HTRF signal may be read, for example using Viewlux or EnVision (PerkinElmer Life and Analytical Sciences, Waltham, Mass.). The ratio of […] at 665 nm and 620 nm times 10,000 may be calculated and plotted.
(§2) A series of compounds were prepared using a synthetic method analogous to that set forth in Scheme 1, above, and then tested for their ability to inhibit VIP-induced cAMP elevation and β-arrestin recruitment.
as §1

VIPR2 [3] = biological target: T1, VIPR2; assay: Inhibition of VIP-induced β-arrestin recruitment (% Activity)
Excerpt: In a further non-limiting embodiment of the invention, the ability of a compound to inhibit VIPR2 GPCR activity may be tested, for example, using the PathHunter® eXpress 3-Arrestin GPCR system (Discoverx Corporation, Fremont, Calif., US), as used by Chu et al., 2010, Molecular Pharmacol. 7795-101. In this assay, J-Arrestin is fused to the “Enzyme Acceptor” (“EA”), an N-terminal deletion mutant of β-gal, and the GPCR of interest is fused to a smaller (42 amino acids), weakly complementing portion of the β-gal enzyme (termed “ProLink™”). In cells that stably express these fusion proteins, the interaction of β-Arrestin and the GPCR following ligand stimulation forces the complementation of the two β-gal fragments resulting in the formation of a functional enzyme that converts substrate to detectable signal. In the absence of an interaction between the GPCR and β-Arrestin, the enzyme activity is low due to the low affinity of the two enzyme fragments. For example, a nucleic acid encoding VIPR2, for example hVIPR2, may be cloned into the ProLink vector (DiscoveRx) for GPCR-ProLink fusion protein production. Parental HEK293 cells that stably express β-arrestin2-β-gal-EA fusion protein (DiscoveRx) may be detached and transiently transfected with the VIPR2-containing vector using Fugene6 transfection reagent in suspension mode. Transfected cells in assay medium may be plated into test plates, for example at 15,000 cells/25 μl/well. After overnight incubation, 500 n1 of an inhibitor or test inhibitor may be introduced into the test plate followed by 2 h incubation at 37° C., 5% CO2. Flash detection reagents may be added at 12.5 μl/well. After 5 min to 1 h of room-temperature incubation, the cell plates may be read on CLIPR (PerkinElmer Life and Analytical Sciences) or Acquest (Molecular Devices, Sunnyvale, Calif.) for luminescence signal.
as §2, §1

Compound: O=C(N[C@H]1c2ccccc2C[C@H]1O)[C@H](Cc1ccccc1)C[C@H](O)CNS(=O)(=O)c1ccc([N+](=O)[O-])cc1 [Compound 1, reference compound]
- shift of VIP dose-response curve (VIPR2 [1]; increasing doses of compound (FIG. 1C)): rightward shift

Compound: O=C([C@H](Cc1ccccc1)C[C@H](O)CNS(=O)(=O)c1ccc([N+](=O)[O-])cc1)N1CCOCC1 [Compound B9A]
- inhibition at 0.5 µM (VIPR2 [2]; Batch 2): 3.8%

Compound: O=C([C@@H](Cc1ccccc1)C[C@H](O)CNS(=O)(=O)c1ccc([N+](=O)[O-])cc1)N1CCOCC1 [Compound B9B]
- inhibition at 1 µM (VIPR2 [2]; 1 μM, Batch 2): -10.4%

Compound: O=C(NC1CCCc2ccccc21)[C@@H](Cc1ccccc1)C[C@H](O)CNS(=O)(=O)c1ccc([N+](=O)[O-])cc1 (stereo partly shown) [Compound B13B]
- % activity (β-arrestin recruitment) at 1 µM (VIPR2 [3]; 1 μM, Batch 2): 5.9%

Compound: O=C([C@@H](Cc1ccccc1)C[C@H](O)CNS(=O)(=O)c1ccc([N+](=O)[O-])cc1)N1CCCCC1 [Compound B18B]
- inhibition at 0.5 µM (VIPR2 [3]; Batch 2): 9.5%

Compound: CCC(=O)Nc1ccc(S(=O)(=O)NC[C@@H](O)C[C@@H](Cc2ccccc2)C(=O)N[C@H]2c3ccccc3C[C@H]2O)cc1 [Compound X091]
- inhibition at 0.5 µM (VIPR2 [3]; Batch 3): 3.4%

Compound: O=C(N[C@H]1c2ccccc2C[C@H]1O)[C@H](Cc1ccccc1)C[C@H](O)CNS(=O)(=O)c1ccc(C(=O)N2CCCCC2)cc1 [Compound X101]
- inhibition at 0.5 µM (VIPR2 [2]; Batch 3): -5.3%

Compound: CS(=O)(=O)c1ccc(S(=O)(=O)NC[C@@H](O)C[C@@H](Cc2ccccc2)C(=O)N[C@H]2c3ccccc3C[C@H]2O)cc1 [Compound X111]
- IC50 (VIPR2 [1]): 13.3 µM

Compound: O=C(N[C@H]1c2ccccc2C[C@H]1O)[C@H](Cc1ccccc1)C[C@H](O)CNS(=O)(=O)c1ccc(OC(F)(F)F)cc1 [Compound X112]
- IC50 (VIPR2 [1]): 152 µM

Compound: CCCc1ccc(S(=O)(=O)NC[C@@H](O)C[C@@H](Cc2ccccc2)C(=O)N[C@H]2c3ccccc3C[C@H]2O)cc1 [Compound X113]
- IC50 (VIPR2 [1]): 4.2 µM

Compound: Cc1ccc(S(=O)(=O)NC[C@@H](O)C[C@@H](Cc2ccccc2)C(=O)N[C@H]2c3ccccc3C[C@H]2O)cc1C [Compound X116]
- IC50 (VIPR2 [1]): 13.3 µM

Compound: CCC(C)c1ccc(S(=O)(=O)NC[C@@H](O)C[C@@H](Cc2ccccc2)C(=O)N[C@H]2c3ccccc3C[C@H]2O)cc1 (stereo partly shown) [Compound X117]
- IC50 (VIPR2 [1]): 152 µM

Compound: CCCOc1ccc(S(=O)(=O)NC[C@@H](O)C[C@@H](Cc2ccccc2)C(=O)N[C@H]2c3ccccc3C[C@H]2O)cc1 [Compound X118]
- IC50 (VIPR2 [1]): 4.2 µM

Compound: CCC(C)Oc1ccc(S(=O)(=O)NC[C@@H](O)C[C@@H](Cc2ccccc2)C(=O)N[C@H]2c3ccccc3C[C@H]2O)cc1 (stereo partly shown) [Compound X120]
- IC50 (VIPR2 [1]): 45.8 µM

Compound: O=C(N[C@H]1c2ccccc2C[C@H]1O)[C@H](Cc1ccccc1)C[C@H](O)CNS(=O)(=O)c1ccc(C(F)(F)F)cc1 [F]
- VIPR2 inhibition in BRET-based assay, in words (VIPR2 [1]; compared with Compound 1 or other compounds (FIG. 1C, FIG. 5B)): greater activity than Compound 1; also recorded: greater effect on VIPR2 inhibition than Compound 1

Compound: COc1cc(C(=O)NC[C@@H](O)C[C@@H](Cc2ccccc2)C(=O)N[C@H]2c3ccccc3C[C@H]2O)cc(OC)c1OC [H]
- inhibition at 1 µM (VIPR2 [3]; 1 μM, Batch 1): 3.2%

— patent US20150241410A1, “INHIBITORS OF CENTRAL NERVOUS SYSTEM VASOACTIVE INHIBITORY PEPTIDE RECEPTOR 2” (The Trustees Of Columbia University In The City Of New York, priority 2012, published 2015)
